# Measurements: patent publication US20070135521A1, “Agent for Preventing Metabolic Syndrome” (YAMAHA HATSUDOKI KABUSHIKI KAISHA, priority 2005, published 2007)
# Experiments:
# [1] = system: obese model mice fed with a high-fat diet; experiment: Effect of astaxanthin monoester on obese model mice fed with a high-fat diet; assay type: in vivo, male C57BL/6J strain mice
# Method: Astaxanthin was administered to obese model mice fed with a high-fat diet, and the change in body weight, the amount of subcutaneous fat (in the inguinal region and the back), the amount of visceral fat (around the reproductive organs and around the kidney), the liver weight, the blood glucose level, and the insulin concentration in blood were examined in the following manner.
# Four week old male C57BL/6J strain mice (SPF) purchased from CHARLES RIVER LABORATORIES JAPAN, INC. were used. The mice were preliminarily fed for 8 days and used for the test after they reached the age of 5 weeks. The mice were divided into three groups of 8 each, that is, a normal diet group, a high-fat diet group, and a high-fat diet+astaxanthin (AX) group, so that the average body weight was equal among the groups.
# During the preliminary feeding period, the mice were given an ordinary powder diet (MF, Oriental Yeast Co., Ltd.), and during the test period of 16 weeks, the mice were given the ordinary powder diet or a high-fat diet having the composition shown in Table 2 below. As to drinking water, the mice were allowed to drink freely sterile distilled water from a water supply bottle.
# The astaxanthin monoester prepared in Preparation Example 1 was dissolved in an olive oil (Wako Pure Chemical Industries, Ltd.) to prepare a solution containing astaxanthin monoester at a concentration of 60 mg/mL. This solution was administered to the high-fat diet+AX group and the olive oil to the other two groups in a volume of 0.05 mL/10 g body weight every day for 16 weeks from the start of the test (at the age of 5 weeks) to the age of 21 weeks, using a sonde for oral administration in the mice.
# During the test period, the body weight was measured once a week using a scale. At the end of the test, the body weight was measured, and thereafter, the mice were fasted overnight and the blood glucose level was measured in the tail of each mouse using OneTouch Ultra™ (manufactured by Life Scan Inc., a blood glucose level measuring device). Next, blood was collected from the heart using a heparinized syringe with heparin Na. Immediately after the collection of blood, blood plasma was separated by centrifugation, and the obtained blood plasma was cryopreserved at −80° C. Then, the liver, the adipose tissue in the inguinal region, the adipose tissue around the reproductive organs, the adipose tissue around the kidney, and the adipose tissue in the back were collected and the weights thereof were measured. Thereafter, the insulin concentration in blood was measured with a commercially available kit (Mouse Insulin ELISA KIT (TMB) (AKRIN-011T): Shibayagi Co., Ltd.), using the blood plasma collected at the end of the test.
# The different types of data obtained were expressed as average values±standard errors for each group. In order to test for statistically significant differences between the high-fat diet group and the high-fat diet+AX group or the normal diet group, a multiple comparison test (ANOVA) was performed using an analysis software (Stat View, Abacus Inc., USA), and a comparison between the groups was performed using Fisher's PLSD multiple comparison test. Differences were considered statistically significant when p<0.05.
# [2] = system: Human umbilical vein endothelial cells (HUVECs); experiment: Measurement of 50% lethal concentration for HUVEC (alamarBlue); assay type: cell-based; settings: 72 hours incubation, 250 μM = maximum concentration dissolved in DMSO
# Method: Human umbilical vein endothelial cells (HUVECs) (ATCC CRL-1730) were obtained from American Type Culture Collection and precultivated in an Endothelial Cell Growth Medium (CELL APPLICATIONS, USA) containing 10% bovine fetal serum supplemented with 1% Antibiotic-Antimycotic (GIBCO BRL, USA) under a 5% CO2 atmosphere at 37° C.
# A Matrigel matrix (BD Biosciences, USA) was melted and kept at 4° C. on ice, and then, 50 μL of the matrix were transferred to each well of a 96-well tissue culture plate. The plate was incubated at 37° C. for at least one hour to solidify the matrix solution.
# On the other hand, the astaxanthin monoester obtained in Preparation Example 1 was dissolved in dimethylsulfoxide (DMSO), and then diluted with distilled water to prepare stock test solutions in which the astaxanthin monoester was contained in 40 (v/v)% DMSO at 25000, 2500, 250, 25, and 2.5 μM, respectively. […]
# After the incubation, 20 μL of a 90% alamarBlue reagent were added to individual wells, and incubated for an additional 6 hours. Then, the fluorescence intensity of each well was measured at an excitation wavelength of 530 nm and an emission wavelength of 590 nm using a Spectrafluor Plus plate reader to count the number of living cells. […] The 50% lethal concentration was calculated as the concentration at which the number of living cells was 50% of the number of cells at the start of the experiment.
# [3] = high-fat diet+AX vs high-fat diet, end of 16-week test, FIG. 2
# [4] = high-fat diet+AX vs high-fat diet, end of 16-week test, FIG. 3
substance,measurement,setting,value
astaxanthin monoester,change over time in mean body weight,"[1]; high-fat diet+AX group vs high-fat diet group, oral, every day for 16 weeks, 60 mg/mL in olive oil, 0.05 mL/10 g body weight, FIG. 1",the increase in body weight tended to be suppressed
same,mean weight of subcutaneous fat,[1]; [3],the accumulation of fat was significantly suppressed
same,mean weight of visceral fat,[1]; [3],the accumulation of fat was significantly suppressed
same,proportion of the liver weight to body weight,[1]; [4],the proportion approached that in the case of the normal diet
same,proportions of the mean weights of the adipose tissues to mean body weight,[1]; [4],the increase was significantly suppressed
same,blood glucose level,"[1]; high-fat diet+AX vs high-fat diet, fasted overnight, end of 16-week test, FIG. 5",maintained at the same level as that of the normal diet group
same,insulin concentration in blood,"[1]; high-fat diet+AX vs high-fat diet, plasma at end of 16-week test, FIG. 4",the insulin concentration was considerably suppressed
same,LC50,[2],≥ 250 µM
